Measured values published in article PMC3815685 (ACS chemical biology, 2013).

Legend:
PiCSAD = PiCSAD (Polaribacter irgensii, UniProt A4C1C8); experiment: decarboxylation, OPA-HPLC, partially purified enzyme; type: biochemical; settings: PBS pH 7.4, 10 μM PLP, 4 °C
hCSAD = biological target: T1, hCSAD (Homo sapiens, UniProt Q9Y600); experiment: inhibition of CSA decarboxylation, OPA-HPLC of hypotaurine/taurine; type: biochemical
T1 sequence (Q9Y600 1-493): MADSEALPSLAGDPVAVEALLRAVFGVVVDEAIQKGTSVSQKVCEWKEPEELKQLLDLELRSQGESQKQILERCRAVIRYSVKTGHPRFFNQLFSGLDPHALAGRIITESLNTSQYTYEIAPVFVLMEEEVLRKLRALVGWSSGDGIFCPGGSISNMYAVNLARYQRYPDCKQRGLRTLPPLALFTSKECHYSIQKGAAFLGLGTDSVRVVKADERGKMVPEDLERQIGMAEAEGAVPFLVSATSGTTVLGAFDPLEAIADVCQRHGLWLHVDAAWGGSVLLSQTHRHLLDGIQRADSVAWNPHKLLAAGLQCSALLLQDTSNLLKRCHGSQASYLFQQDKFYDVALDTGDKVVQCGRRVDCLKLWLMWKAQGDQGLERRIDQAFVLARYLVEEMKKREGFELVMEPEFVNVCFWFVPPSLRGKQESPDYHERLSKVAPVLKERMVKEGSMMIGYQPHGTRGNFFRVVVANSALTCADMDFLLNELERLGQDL

| SMILES | decarboxylation, OPA-HPLC, partially purified enzyme (PiCSAD) | IC50 (hCSAD) [µM] |
| --- | --- | --- |
| N[C@@H](CS(=O)O)C(=O)O [CSA, cysteine sulfinic acid] | showed decarboxylation of CSA but no detectable activity towards CA or L-Glu | – |
| N[C@@H](CCC(=O)O)C(=O)O [L-Glu, L-glutamic acid] | – | 1100 ± 100 |
